Test results as given in patent US12383548B2, “Antibacterial quinolines” (priority 2019, dated 2025).
Values after ≈ are worked out from the molar mass of the structure shown. Where two headings read alike, the source gives them in different places.

What was measured:
[1] = system: susceptible H37Rv M. tuberculosis, strain ATCC 25618; test: Mycobacterium tuberculosis susceptibility assay REMA (resazurin microtiter assay); assay type: cell-based; conditions: Mycobacterium tuberculosis, 144 h, MTB growth, H37Rv, 6 days at 37° C., Middlebrook 7H9, read-out: REMA MIC
[2] = system: HepG2 cell line; test: in vitro cytotoxicity assay (MTS tetrazolium reduction, cell viability); assay type: cell-based; conditions: Homo sapiens, HepG2, 48 h, MTS, read-out: IC50
Method: In an embodiment, the in vitro cytotoxicity assay was carried out as follows. […] The assay was performed in 96 well plates for 48 h at 37° C. and 5% CO2 in incubation medium (low glucose DMEM with Glutamax, 10% FBS, 1% Pen/Strep and DMSO). Cells were exposed to 8 different compound concentrations in successive dilutions (usually, base 2), plus a positive control (a compound in a concentration known to decrease cell viability above 50%) and a negative control (incubation medium). Six replicate wells were assayed for each condition. Compound stock solutions were prepared in DMSO at 20 mM, whenever possible, filter sterilized, aliquoted and stored at −20° C. The maximum compound concentrations tested depend on its solubility in incubation medium, and on the maximum DMSO percentage allowable without loss of cell viability. At the end of the incubation period, tetrazolium reagent was added (CellTiter 96® AQueous Solution from Promega); cells were incubated for another 3 hours in order to promote tetrazolium reduction to formazan by viable cells. The amount of soluble formazan produced was evaluated by 490 nm absorbance reading in a spectrophotometer plate reader.

[3] = physchem; assay type: physicochemical; conditions: pH 7.4
Method: The solution was allowed to mix in a rotator for 1 hour at 30 rpm.

[4] = in vitro; assay type: in vitro ADME; conditions: human, plasma
Method: The percentage of the test compounds remaining after incubation in plasma and their half-lives (T1/2) were calculated.

[5] = in vitro; assay type: in vitro ADME; conditions: human, plasma, pH 7.4
Method: The assay was performed in a multiple-use 96-well dialysis unit (HTD96b dialyzer). […] 120 μl of non-diluted plasma spiked with the compound (1 μM, 1% final DMSO concentration) was added to one chamber and the same volume of phosphate buffer saline pH 7.4 to the other chamber. HTD96b dialyzer was covered with adhesive sealing film and incubated at 37° C. and 100 rpm orbital shaking for 5 hours. […] For sample preparation, an aliquot of the content of each chamber was mixed with the same volume of the blank opposite matrix. In order to define non-specific loss of the compound during this assay, standard solution was created by mixing an aliquot of spiked plasma with blank buffer without dialysis. Samples were diluted 10-fold with 100% acetonitrile with subsequent plasma proteins sedimentation by centrifugation. Supernatants were analysed using a Shimadzu VP HPLC system with a reverse phase column, coupled with a tandem mass spectrometer API 3000 (PE Sciex). The both positive and negative ion modes of the TurbolonSpray ion source were used. […]
The percentage of plasma protein bounded compound and its recovery were calculated using the equations below:
The percentage of plasma protein bounded compound and its recovery were calculated using the values obtained for each compound in the quantification of the 3 samples (in buffer, plasma and standard solution).

Compound	MIC ([1]; Table 1)	MIC ([1]; Table 2)	IC50 ([2]; Table 1, cytotoxicity)	IC50 ([2]; Table 2, cytotoxicity)	logD [3]	half-life at 1 μM [4]	fraction unbound at 5 h, 1 μM [5]
CCOC(=O)C1CCN(c2ccc3cc(-c4cccc(O)c4)ccc3n2)CC1 [Compound 26, ethyl 1-(6-(3-hydroxyphenyl)quinolin-2-yl)piperidine-4-carboxylate]	< 7.8 µM	< 7.8 µM	> 100 µM	> 100 µM	> 4.5	> 2 h	≤ 0.01
CCOC(=O)C1CCN(c2ccc3cc(-c4ccc5[nH]ccc5c4)ccc3n2)CC1 [Compound 42, ethyl 1-(6-(1H-indol-5-yl)quinolin-2-yl)piperidine-4-carboxylate]	7.8 to 15.6 µM (≈ 3.12 to 6.23 µg/mL)	–	20 to 50 µM	–	–	–	–
CCOC(=O)C1CCCN(c2ccc3cc(-c4ccncc4)ccc3n2)C1 (centres unmarked) [Compound 54, ethyl 1-(6-(pyridin-4-yl)quinolin-2-yl)piperidine-3-carboxylate]	7.8 to 15.6 µM (≈ 2.82 to 5.64 µg/mL)	–	> 100 µM	–	–	–	–
